According to patent publication US20230285282A1, “OCULAR IMPLANT CONTAINING AN ACTIVE INGREDIENT” (OCULAR THERAPEUTIX, INC., priority 2020, published 2023):
Values after ≈ are worked out from the molar mass of the structure shown. Read-outs that look alike come from different tables or passages of the source. Each block holds one compound with its values, some of them ahead of it.

What was measured:
[1] = cited from earlier work
physchem = settings: PBS, 37 °C, pH 7.2, aqueous buffer
CYP3A4/5 = settings: cited from earlier work
[2] = 1.25 mg intravitreal, rabbits; cited from earlier work
vascular leakage = assay: VEGF challenge, vascular leakage scored by fluorescein angiography; type: in vivo, Dutch belted rabbits
Method: For efficacy studies, 12 animals (with and without the implant) received an […] VEGF challenge (1 μg) 48 hours prior to selected time points (1, 2, 3, and 6 months after implant injection; 3 animals euthanized at each time point) to induce vascular proliferation and leakage. Rabbits were followed for 6 months from the administration of the implant. Eyes were imaged 48 hours post VEGF challenge using fluorescein angiography (FA) after intravenous injection of fluorescein and were graded on a scale from 0 to 4 (Table 9). Each eye was scored on the left and right side to account for non-uniformity in inflammatory response. FA scores were then averaged for each eye.
Animals from each group were […] challenged with VEGF (1 μg) 48 hours prior to selected time points (0.5, 1, 3, 6, 9, 12, 14, 16, 19, 20, and 21 months) to induce vascular proliferation and leakage. Eyes were imaged 48 hours post VEGF challenge time-points using fluorescein angiography (FA) and were graded on a scale from 0 (normal) to 4 (severe leakage) as described under Example 3.2.

solubility (physchem): 0.4 to 0.5 µg/mL (≈ 1.03 to 1.29 µM)
Compound: CNC(=O)c1ccccc1Sc1ccc2c(/C=C/c3ccccn3)n[nH]c2c1 [axitinib, N-methyl-2-[3-((E)-2-pyridin-2-yl-vinyl)-1H-indazol-6-ylsulfanyl]-benzamide]
clearance half-life (t1/2) ([1]; Rugo et al. 2005): a few hours | axitinib exposure (Cmax) (CYP3A4/5; co-administration with oral ketoconazole): increased | axitinib exposure (Cmax) (CYP3A4/5; co-administration with rifamycin): decreased

Compound: Avastin®: anti-VEGF therapeutic
half-life [2]: 158 h | duration of effect post injection (vascular leakage; 1.25 mg Avastin only): ≤ 3 months | vascular leakage after VEGF challenge (vascular leakage; 1.25 mg Avastin only (group 3)): after 3 months vascular leakage re-occurred

Compound: aflibercept: anti-VEGF agent
t1/2 in the human eye [1]: several days

Compound: ranibizumab: anti-VEGF agent
t1/2 in the human eye [1]: several days
